Measurements taken from the supplement of paper PMC10307832.

Key:
Assay in all cases: relative viability (nuclei count vs DMSO), 5 days (fraction); higher = more cells survive
LOU-NH91 = test system: LOU-NH91
Outline: (§1)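 Relative viability divides the nuclei count in treated wells by that in vehicle wells. Lung cancer cell lines were seeded in 1536-well plates, dosed by pin tool the next day, and fixed and stained after 5 days in one step with final 0.05% Triton X-100, 1% formaldehyde and 1 ug/ml Hoechst. Dosing was a single drug or a fixed anchor-drug dose plus five library-drug doses (not always all listed) in √10 steps, and values are medians of duplicate plates imaged at 4×.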

HCC-827 = test system: HCC-827
Outline: as §1

NCI-H2085 = test system: NCI-H2085
Outline: as §1

NCI-H1666 = test system: NCI-H1666
Outline: as §1

NCI-H2087 = test system: NCI-H2087
Outline: as §1

201T = test system: 201T
Outline: as §1

SW 1573 = test system: SW 1573
Outline: as §1

COR-L 105 = test system: COR-L 105
Outline: as §1

LU99A = test system: LU99A
Outline: as §1

NCI-H2342 = test system: NCI-H2342
Outline: as §1

NCI-H647 = test system: NCI-H647
Outline: as §1

HOP-62 = test system: HOP-62
Outline: as §1

NCI-H1437 = test system: NCI-H1437
Outline: as §1

EKVX = test system: EKVX
Outline: as §1

H3255 = test system: H3255
Outline: as §1

LCLC-97TM1 = test system: LCLC-97TM1
Outline: as §1

NCI-H1975 = test system: NCI-H1975
Outline: as §1

EPLC-272H = test system: EPLC-272H
Outline: as §1

PC-3 [JPC-3] = test system: PC-3 [JPC-3]
Outline: as §1

BEN = test system: BEN
Outline: as §1

NCI-H1395 = test system: NCI-H1395
Outline: as §1

NCI-H358 = test system: NCI-H358
Outline: as §1

Compound CC1(C)CCC(c2ccc(Cl)cc2)=C(CN2CCN(c3ccc(C(=O)NS(=O)(=O)c4ccc(N[C@H](CCN5CCOCC5)CSc5ccccc5)c(S(=O)(=O)C(F)(F)F)c4)cc3)CC2)C1 [Navitoclax] + COc1cc2c(Oc3ccc(NC(=O)C4(C(=O)Nc5ccc(F)cc5)CC4)cc3F)ccnc2cc1OCCCN1CCOCC1 [Foretinib] (partner 0.25 µM) has a relative viability (LOU-NH91; first compound 0.005 µM) of 0.955, a relative viability (LOU-NH91; first compound 0.01581 µM) of 0.932 and a relative viability (LOU-NH91; first compound 0.05 µM) of 0.941. It also gave a relative viability (LOU-NH91; first compound 0.1581 µM) of 0.911, a relative viability (LOU-NH91; first compound 0.5 µM) of 0.824 and a relative viability (HCC-827; first compound 0.005 µM) of 0.914. For the same compound, the relative viability (HCC-827; first compound 0.01581 µM) was 1.05, the relative viability (HCC-827; first compound 0.05 µM) was 0.832 and the relative viability (HCC-827; first compound 0.1581 µM) was 1.03. For the same compound, the relative viability (HCC-827; first compound 0.5 µM) was 1.01, the relative viability (NCI-H2085; first compound 0.005 µM) was 0.92 and the relative viability (NCI-H2085; first compound 0.01581 µM) was 0.98. The relative viability (NCI-H2085; first compound 0.05 µM) was 0.989, the relative viability (NCI-H2085; first compound 0.1581 µM) was 0.863 and the relative viability (NCI-H2085; first compound 0.5 µM) was 0.836. For the same compound, the relative viability (NCI-H1666; first compound 0.005 µM) was 0.941, the relative viability (NCI-H1666; first compound 0.01581 µM) was 1.04 and the relative viability (NCI-H1666; first compound 0.05 µM) was 0.965. For the same compound, the relative viability (NCI-H1666; first compound 0.1581 µM) was 0.998, the relative viability (NCI-H1666; first compound 0.5 µM) was 0.964 and the relative viability (NCI-H2087; first compound 0.005 µM) was 1.07. The relative viability (NCI-H2087; first compound 0.01581 µM) was 1.08, the relative viability (NCI-H2087; first compound 0.1581 µM) was 0.953 and the relative viability (NCI-H2087; first compound 0.5 µM) was 1.07. The relative viability (201T; first compound 0.005 µM) was 1.2, the relative viability (201T; first compound 0.01581 µM) was 1.43 and the relative viability (201T; first compound 0.05 µM) was 1.06. It also gave a relative viability (201T; first compound 0.1581 µM) of 1.12, a relative viability (201T; first compound 0.5 µM) of 1.03 and a relative viability (SW 1573; first compound 0.005 µM) of 1.06. The relative viability (SW 1573; first compound 0.01581 µM) was 1, the relative viability (SW 1573; first compound 0.05 µM) was 0.922 and the relative viability (SW 1573; first compound 0.1581 µM) was 1.02. It also gave a relative viability (SW 1573; first compound 0.5 µM) of 1.04, a relative viability (COR-L 105; first compound 0.005 µM) of 1.17 and a relative viability (COR-L 105; first compound 0.01581 µM) of 1.46. The relative viability (COR-L 105; first compound 0.05 µM) was 1.31, the relative viability (COR-L 105; first compound 0.1581 µM) was 0.865 and the relative viability (COR-L 105; first compound 0.5 µM) was 0.979. It also gave a relative viability (LU99A; first compound 0.005 µM) of 0.796, a relative viability (LU99A; first compound 0.01581 µM) of 0.886 and a relative viability (LU99A; first compound 0.05 µM) of 0.459. It also gave a relative viability (LU99A; first compound 0.1581 µM) of 0.804, a relative viability (LU99A; first compound 0.5 µM) of 0.799 and a relative viability (NCI-H2342; first compound 0.005 µM) of 1.19. For the same compound, the relative viability (NCI-H2342; first compound 0.01581 µM) was 1.22, the relative viability (NCI-H2342; first compound 0.05 µM) was 0.871 and the relative viability (NCI-H2342; first compound 0.1581 µM) was 1.1. For the same compound, the relative viability (NCI-H2342; first compound 0.5 µM) was 1.16, the relative viability (NCI-H647; first compound 0.005 µM) was 1.22 and the relative viability (NCI-H647; first compound 0.01581 µM) was 1.38. For the same compound, the relative viability (NCI-H647; first compound 0.05 µM) was 1.27, the relative viability (NCI-H647; first compound 0.1581 µM) was 1.24 and the relative viability (NCI-H647; first compound 0.5 µM) was 1.27. For the same compound, the relative viability (HOP-62; first compound 0.005 µM) was 1.07, the relative viability (HOP-62; first compound 0.01581 µM) was 1.15 and the relative viability (HOP-62; first compound 0.05 µM) was 1.19. For the same compound, the relative viability (HOP-62; first compound 0.1581 µM) was 1.02, the relative viability (HOP-62; first compound 0.5 µM) was 1.02 and the relative viability (NCI-H1437; first compound 0.005 µM) was 1.18. For the same compound, the relative viability (NCI-H1437; first compound 0.01581 µM) was 1.3, the relative viability (NCI-H1437; first compound 0.05 µM) was 1.1 and the relative viability (NCI-H1437; first compound 0.1581 µM) was 1.31. The relative viability (NCI-H1437; first compound 0.5 µM) was 1.27, the relative viability (EKVX; first compound 0.005 µM) was 1.02 and the relative viability (EKVX; first compound 0.01581 µM) was 1.01. For the same compound, the relative viability (EKVX; first compound 0.05 µM) was 0.544, the relative viability (EKVX; first compound 0.1581 µM) was 0.8 and the relative viability (EKVX; first compound 0.5 µM) was 0.629. For the same compound, the relative viability (H3255; first compound 0.005 µM) was 0.884, the relative viability (H3255; first compound 0.01581 µM) was 0.973 and the relative viability (H3255; first compound 0.05 µM) was 0.764. It also gave a relative viability (H3255; first compound 0.1581 µM) of 0.861, a relative viability (H3255; first compound 0.5 µM) of 0.787 and a relative viability (LCLC-97TM1; first compound 0.005 µM) of 0.972. For the same compound, the relative viability (LCLC-97TM1; first compound 0.01581 µM) was 0.984, the relative viability (LCLC-97TM1; first compound 0.05 µM) was 0.831 and the relative viability (LCLC-97TM1; first compound 0.1581 µM) was 0.985. The relative viability (LCLC-97TM1; first compound 0.5 µM) was 0.921, the relative viability (NCI-H1975; first compound 0.005 µM) was 0.887 and the relative viability (NCI-H1975; first compound 0.01581 µM) was 1.03. It also gave a relative viability (NCI-H1975; first compound 0.05 µM) of 1.03, a relative viability (NCI-H1975; first compound 0.1581 µM) of 0.914 and a relative viability (NCI-H1975; first compound 0.5 µM) of 1.04. For the same compound, the relative viability (EPLC-272H; first compound 0.005 µM) was 0.707, the relative viability (EPLC-272H; first compound 0.05 µM) was 0.766 and the relative viability (EPLC-272H; first compound 0.1581 µM) was 0.712. The relative viability (EPLC-272H; first compound 0.5 µM) was 0.764, the relative viability (PC-3 [JPC-3]; first compound 0.005 µM) was 1.02 and the relative viability (PC-3 [JPC-3]; first compound 0.01581 µM) was 1.03. It also gave a relative viability (PC-3 [JPC-3]; first compound 0.05 µM) of 1.12, a relative viability (PC-3 [JPC-3]; first compound 0.1581 µM) of 1.02 and a relative viability (PC-3 [JPC-3]; first compound 0.5 µM) of 1.06. It also gave a relative viability (BEN; first compound 0.005 µM) of 0.69, a relative viability (BEN; first compound 0.01581 µM) of 0.664 and a relative viability (BEN; first compound 0.05 µM) of 0.604. For the same compound, the relative viability (BEN; first compound 0.1581 µM) was 0.719, the relative viability (BEN; first compound 0.5 µM) was 0.114 and the relative viability (NCI-H1395; first compound 0.005 µM) was 1.15. It also gave a relative viability (NCI-H1395; first compound 0.01581 µM) of 1.19, a relative viability (NCI-H1395; first compound 0.05 µM) of 0.865 and a relative viability (NCI-H1395; first compound 0.1581 µM) of 0.986. For the same compound, the relative viability (NCI-H1395; first compound 0.5 µM) was 1.12, the relative viability (NCI-H358; first compound 0.005 µM) was 0.743 and the relative viability (NCI-H358; first compound 0.01581 µM) was 0.946. For the same compound, the relative viability (NCI-H358; first compound 0.05 µM) was 0.613, the relative viability (NCI-H358; first compound 0.1581 µM) was 0.645 and the relative viability (NCI-H358; first compound 0.5 µM) was 0.728.
